In patent US20240309049A1, “SYNTHETIC DNA BINDING DOMAIN PEPTIDES AND USES THEREOF” (The University of Chicago, priority 2016, published 2024):
Positions of bridges follow the written chain, without caps; N, C: chain ends. Non-standard residues stand in square brackets, D forms with d. No end group written: not given here. S5 = C=CCCC[C@](C)(N)C(=O)O; βAla = NCCC(=O)O

Tested on: E-box DNA (5′-CACGTG-3′)
Assay: Electrophoretic mobility shift assay (EMSA, gel shift) with fluorophore-labeled E-box oligonucleotide
Format: binding
Conditions: for E-box DNA binding in gel shift (in words): E-box probe
Procedure: FIG. 9 Representative electrophoretic mobility shift assay (EMSA, referred to as “Gel Shift) images of full length Myc/Max protein binding a fluorophore-labeled oligonucleotide containing an E-box binding site. Full-length Myc/Max binds in this assay with an affinity of ˜10 nM.
A fluorophore-labeled (5′-FAM) oligonucleotide containing a central E-box sequence was used (at 10 nM) to assess Myc/Max and DMD binding. This sequence was used in the Myc/Max/E-box crystal structure. […] The lower band is free E-box probe whereas the higher band is Myc/Max-bound E-box probe. Addition of excess non-labeled E-box probe (E1) competes this interaction. […] Thus, gel shift assays with the E-box probe are suitable for determining DMD (RTD) DNA-binding.
Representative gel shifts are shown for the Myc/Max heterodimer and members of the RTD2x, RTD8x and RTD7x series. Plotted are binding curves derived from the intensity of the free E-box probe (inhibition) and stable shifted band (binding).

Substance | E-box DNA binding in gel shift (in words) | EC50 (E-box probe at 10 nM, read-out: EC50 for stable E-box binding / stable complex formation) [µM] | E-box DNA binding in gel shift (in words) (listed as MBS) | Kd (E-box oligonucleotide, read-out: binding affinity (Kd) for E-box DNA) [µM]
913-MBS: RTD913 design with rigid meta-xylyl linker MBS (Ac-W[βAla]KRAHHNALER[2‑amino‑2‑methylhept‑6‑enoic acid]RRD[S5]IKDSK; staple 13-17; also: dimer via MBS (meta-xylyl) linker, attachment site not given here) | both tight and stable binding | 0.05 to 0.1 | more stable DNA complex formation | –
AMAS: RTD913 sub-class dimer with short straight-chain AMAS linker (Ac-W[βAla]KRAHHNALER[2‑amino‑2‑methylhept‑6‑enoic acid]RRD[S5]IKDSK; staple 13-17; not fully specified (residue 22); also: dimer via AMAS linker, attachment site not given here) | less stable complex formation | – | – | –
EMCS: RTD913 sub-class dimer with long straight-chain EMCS linker (Ac-W[βAla]KRAHHNALER[2‑amino‑2‑methylhept‑6‑enoic acid]RRD[S5]IKDSK; staple 13-17; not fully specified (residue 22); also: dimer via EMCS linker, attachment site not given here) | less stable complex formation | – | – | –
Myc/Max: full length recombinant Myc/Max protein heterodimer | specifically binds | – | – | ~0.01
